From US5968753A, “Positive and positive/negative cell selection mediated by peptide release” (Nexell Therapeutics, Inc., priority 1995, dated 1999)
Ends that are not written are not given here.

Legend:
[1] = Solubilization of peptides in DPBS plus 1% HSA; format: physicochemical; details: Dulbecco's phosphate buffered saline (DPBS) plus 1% HSA
Method: 9079A-G peptides were solubilized in Dulbecco's phosphate buffered saline (DPBS) plus 1% HSA. The 9079A-G peptides were tested in the FACScan assay using 10 6 KG1a cells bound with 0.05 ug of the 9079 antibody.

CD34+ cells = test: CD34+ cell isolation from mobilized peripheral blood on automated cell separation apparatus; format: cell-based, human; details: 25 mg of peptide 9069N or chymopapain control
Method: CD34+ cells were also isolated from human mobilized peripheral blood using the automated cell separation apparatus of co-pending U.S. patent application Ser. No. 08/212,479, and the method essentially as described in co-pending U.S. patent application Ser. No. 08/212,616. Both Ser. No. 08/212,479 and Ser. No. 08/212,616 are herein expressly incorporated by reference. Chymopapain was used as the control releasing agent, and 25 mg of the peptide 9069N (Table 11) was used as the test releasing agent.

[2] = system: positively selected CD34+ cells; test: Culture of positively selected CD34+ cells with cytokines for 12 days; format: cell-based, human; details: released cells of first experiment
Method: The purity of the positively selected CD34+ cells was greater than 90% for both the chymopapain and peptide released cells. In a first experiment, the peptide release method yielded 14×10^6 cells, while the chymopapain release method yielded 20×10^6 cells. In a second experiment, the peptide release method yielded 19×10^6 cells, while the chymopapain release method yielded 22×10^6 cells. The positively selected CD34+ cells from the first experiment were grown in culture with cytokines for 12 days.

9069 antibody = test: Stem cell selection with 9069 antibody and sheep-anti-mouse beads, release by peptide or chymopapain; format: cell-based; details: chymopapain release
561 antibody [3] = test: Chemical reagents as enhancers of peptide-dependant release of CD34+ cells from the 561 antibody (FACS assay); format: cell-based
Method: The ability of chemical reagents to enhance peptide-dependant release of captured CD34+ cells from the 561 antibody was examined. […] Previous studies indicated a requirement for low pH (about pH4) for effective cell release. Since long-term viability of the low pH-released cells was not known, conditions which could alter the pH to a more neutral value (about pH5-7) were desirable. Reagents which were known to affect electrostatic and hydrogen bonding interactions of proteins were tested in addition to excluded-volume polymers.

anti-CD34 antibody, 9069 = test: KG1a cell FACS assay: release by peptides of 9069 antibody bound to cells; format: cell-based, mouse
Method: These experiments were performed following a similar procedure to the binding experiments except that the anti-CD34 antibody, 9069, was incubated with KG1a cells first, followed by addition of peptide. The experimental outline is schematically shown below:
Anti-CD34 antibody, 9069 (0.1 microgram) was incubated with KG1a cells (10^6) for 30 minutes at room temperature (about 22° C.). Molar excesses of 10^5 to 10^6 times the amount of peptide to antibody were tested for the ability to displace the prebound antibody. Peptides were incubated with the antibody-cell complexes for 30 minutes at room temperature (approximately 22° C.). Remaining bound antibody was detected using the FITC-goat anti-mouse IgG reagent described in Example 3.
Analysis of the variant peptide, 9069Q2, was done in parallel with the 9069N peptide. This analysis provides quality control information on reagents including the antibody, 9069, and the cells, KG1a. FACScan assays included a negative control of KG1a cells alone and positive control samples of KG1a cells with the 9069 antibody bound and detected with a secondary antibody, goat-anti-mouse IgG-FITC.

561 antibody [4] = test: KG1a or tHL60 cell-based FACS assay: release of prebound 561 antibody; details: for functional release activity: crude peptide
Method: Five peptides representing hexapeptides selected from biopannings were synthesized and tested for their ability to serve as release agents in the KG1a or tHL60 cell-based FACS assay.
HPLC-purified peptides 561C and D were tested in the cell-based KG1a FACS assay.
Functional release activity of purified 561D peptide at pH 4 and 6 was tested.
Functional release activity of purified 561C and 561D peptides at pH 4, 5, 6, 7, 8, and 9 was tested.
Functional release activity of crude 561A,B,C,D, M, P, Q, CDR2H, CDR2L, CDR3H, CDR3L, 34B, 34C,34D,34E and 34F peptides adjusted to pH 7 and pH unadjusted (^~ pH3.8-4.3) was tested.

[5] = Table 7, mobilized peripheral blood (5.86 % CD34)
[6] = Table 8, mobilized peripheral blood (1.05 % CD34)
[7] = Table 9, bone marrow sample (3.66 % CD34)
[8] = Table 10, mobilized peripheral blood (0.68 % CD34)

## YSRLGFKD [9079B, YSRLGF-KD]
[1]
  solubility: solubilized

## Chymopapain
CD34+ cells; first experiment
  cells yielded by release method: 20×10^6 cells
CD34+ cells; mobilized peripheral blood
  purity of the positively selected CD34+ cells: greater than 90%
CD34+ cells; second experiment
  cells yielded by release method: 22×10^6 cells
[2]
  expansion in cell number: 68 fold
9069 antibody; [5]
  % CD34 CELLS Negative Fraction: 2.5%
  % CD34 CELLS Positive Fraction: 94%
  % Capture: 62%
  % Yield: 65.9%
9069 antibody; [6]
  % CD34 CELLS Negative Fraction: 0.16%
  % CD34 CELLS Positive Fraction: 90.1%
  % Capture: 86.9%
  % Yield: 73.4%
9069 antibody; [7]
  % CD34 CELLS Negative Fraction: 0.34%
  % CD34 CELLS Positive Fraction: 92.1%
  % Capture: 91.8%
  % Yield: 79.9%
9069 antibody; [8]
  % CD34 CELLS Negative Fraction: 0.12%
  % CD34 CELLS Positive Fraction: 79.73%
  % Capture: 86.7%
  % Yield: 68%

## CC(=O)O [sodium acetate]
561 antibody [3]
  enhancement of peptide mediated release of CD34+ selected cells: significant activity as an enhancement reagent

## KDVYSLWPKD [9079H, KD-VYSLWP-KD]
[1]
  solubility: solubilized

## RSFYYRD [9079E, RSFYYR-D]
[1]
  solubility: insoluble

## NLQGEFKD [9079D, NLQGEF-KD]
[1]
  solubility: solubilized

## [Cl-].[Cl-].[Mg+2] [magnesium chlordie, magnesium chloride]
561 antibody [3]
  enhancement of peptide mediated release of CD34+ selected cells: Less dramatic results

## QYTQPKD [9079C, QYTQPK-D]
[1]
  solubility: solubilized

## ADGA-NGGYFP-GAKD [9069H']
anti-CD34 antibody, 9069; Table 11, 9069 prebound to KG1a cells
  Competition %: 75%
anti-CD34 antibody, 9069; Table 13, yes/no
  release activity: yes

## PGSPLGKD [9079A, PGSPLG-KD]
[1]
  solubility: solubilized

## A C K W C R (ACKWCR) [561M]
561 antibody [4]; KG1a or tHL60 cells
  release of 561 antibody prebound to KG1a or tHL60 cells: able to release 561 antibody prebound to KG1a or tHL60 cells
561 antibody [4]; pH 7
  functional release activity: none of these peptides showed release activity
561 antibody [4]; pH unadjusted (around pH 3.8-4.3)
  functional release activity: showed functional release activity
561 antibody [4]; low pH (~4)
  release activity: showed significant release activity
561 antibody [4]; pH 6 or pH 7
  release activity: did not show release activity

## IQEFGVKD [9079F, IQEFGV-KD]
[1]
  solubility: solubilized
